Assays:
plasma CTX-I = assay: Monkey plasma CTX-I, single oral dose; type: in vivo, cynomolgus monkeys (Macaca fascicularis)
Description: Eight cynomolgus monkeys (Macaca fascicularis) were used for measuring plasma levels of MIV-711 and CTX-I after a single dose. The animals were healthy young males, approximately 2–4 years old and weighing 3–4 kg. Experiments were performed at Covance Ltd (Harrogate, UK). The monkeys were used over an extended period of time (up to a year) and several cathepsin K inhibitors were evaluated during this time. At least 1 week was allowed for washout in between experiments. This was not believed to affect the results with MIV-711, and vehicle controls were run on a regular basis when appropriate. Each animal received at least one dose of MIV-711 and one dose of vehicle with at least 1 week of washout in between treatments.
In single dose experiments, animals were dosed with vehicle or MIV-711 (3–30 µmol/kg) via oral gavage at a dose volume of 4 mL/kg between 7:30 and 9:00 a.m. Blood samples were collected at baseline, 30 min, 1, 2, 4, 8, 12, 24 and 48 h after dose from the femoral vein and transferred into lithium heparin anticoagulant tubes. The samples were centrifuged and the two aliquots of the resultant plasma were frozen at − 70 °C. All samples were processed and stored within 30 min of collection. The aliquots were used to determine the MIV-711 concentration and CTX-I levels, respectively. [drawing 1]
Since the concentration of MIV-711 was measured in each animal it was possible to relate the MIV-711 exposure over 24 h to the % CTX-I inhibition over 24 h in each animal.
The quantification of CTX-I in monkey plasma samples and human serum samples was performed using a commercially available kit (Serum CrossLaps ELISA, IDS Nordic, Herlev, Denmark). The levels of CTX-I in monkey urine samples were measured using a commercially available kit (Urine BETA CrossLaps ELISA, IDS Nordic). The quantification of NTX-I in monkey samples was performed using a commercially available kit (Osteomark NTx Urine, Wampole Laboratories, Inc, Princeton, USA). Urinary levels of CTX-II in monkey samples were measured using a commercially available kit (Urine CrossLaps EIA, IDS Nordic). The concentrations of biomarkers in the urine samples were corrected for creatinine concentrations. The creatinine levels in urine were determined at Swedish University of Agricultural Sciences, using the enzymatic assay (cat no. 8L24-01) on the Abbott system Architect c4000.

[1] = test system: differentiated human osteoclasts; assay: Osteoclast-mediated bone resorption, human bone fragments (CTX-I release); type: cell-based
Description: The effect of MIV-711 on osteoclast-mediated bone resorption was evaluated using a complete kit from Cambrex Bio Science (Walkersville, MD, USA). Briefly, primary osteoclasts were generated from osteoclast precursors by incubation with RANK ligand and M-CSF in 96-well plates coated with human bone fragments, according to the instructions from the provider. After differentiation (minimum of 5 days), osteoclasts were exposed to different fixed concentrations of MIV-711 for 24 h. The resorption activity of the cultures was determined by quantifying CTX-I in the culture supernatants using a commercially available enzyme-linked immunosorbent assay (CrossLaps®, Nordic Bioscience Diagnostics A/S, Herlev, Denmark). Controls exposed to medium without inhibitor were set to 100%. CTX-I levels from MIV-711-treated cells were normalized and expressed as % of control. Curves were generated plotting the concentration of MIV-711 versus % of control. The curves were fitted to the Hill (four parameter) equation to generate an IC50 value using GraphPad Prism software. The IC50 value was defined as the concentration of MIV-711 that reduced CTX-I levels to 50% of control.

## C#C[C@@H]1CN(C(=O)[C@H](CC(C)C)NC(=O)c2ccc(-c3nc(N4CCN(C)CC4)sc3F)cc2)[C@@H]2C(=O)CO[C@H]12 [MIV-711]
Plasma CTX-I; 3 µmol/kg p.o. (p > 0.05)
  Effect on plasma CTX-I versus vehicle: did not differ significantly vs. vehicle
Plasma CTX-I; 10 µmol/kg p.o., between 8 and 24 h post-dose (p < 0.05)
  Effect on plasma CTX-I versus vehicle: statistically significant versus vehicle
Plasma CTX-I; AUC0–24h
  Exposure required for 50% reduction of CTX-I at 24 h post dose: 1.5 µmol/L/h
Plasma CTX-I; highest dose (30 µmol/kg p.o.), 24 h post-dose
  Reduction of plasma CTX-I compared to baseline: 57%
[1]
  Concentration needed for effect on bone resorption in vitro relative to Ki: around 50 fold
[1]; human bone fragments, 24 h, CTX-I, geometric mean
  IC50: 43 nM

— paper PMC5944028, “Nonclinical and clinical pharmacological characterization of the potent and selective cathepsin K inhibitor MIV-711” (Journal of Translational Medicine, 2018)
